In series [1] the target is T1, human recombinant CCR4 receptor (Homo sapiens, UniProt P51679).
T1 construct: Brussels, Belgium; host or cells: CHO-K1
T1 sequence (P51679 1-360): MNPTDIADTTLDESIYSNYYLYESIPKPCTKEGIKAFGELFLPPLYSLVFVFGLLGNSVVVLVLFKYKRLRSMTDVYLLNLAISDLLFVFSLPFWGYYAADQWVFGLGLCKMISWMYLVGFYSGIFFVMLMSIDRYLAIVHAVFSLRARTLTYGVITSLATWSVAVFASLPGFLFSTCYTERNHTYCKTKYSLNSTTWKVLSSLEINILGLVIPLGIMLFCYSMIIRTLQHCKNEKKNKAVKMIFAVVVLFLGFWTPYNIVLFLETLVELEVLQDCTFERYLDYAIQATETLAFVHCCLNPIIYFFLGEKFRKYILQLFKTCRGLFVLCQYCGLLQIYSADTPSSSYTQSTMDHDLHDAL
As to the kind of experiment: FMAT whole cell binding assay (FB-MDC binding to CHO-K1 cells expressing CCR4). The note with it: inhibition of FB-MDC binding to CHO-K1 cells expressing human recombinant CCR4; two hours incubation at room temperature; mean. As to the method:
FMAT Whole Cell Binding Assay
CHO-K1 cells stably expressing the human recombinant CCR4 receptor (Euroscreen; Brussels, Belgium) were cultured in NUT.MIX.F—12(HAM) medium with glutamax-1, containing 10% (v/v) foetal bovine serum and 400 μg ml^−1 geneticin
Cells were harvested at approximately 70% confluence by treatment with a cell dissociation buffer, and seeded at 5×10^3 cells/100 μl culture medium into wells of a black Costar clear-bottomed 96-well microtitre plates. Plates were incubated overnight at 37° C. in 5% CO2 and used the following day.
Before use, the cell plates were washed twice with 100 μl Hanks balanced salt solution (HBSS). To each well was then added 65 μl of HBSS, 10 μL of 10% DMSO in HBSS±test compound and then 25 μL of 2.8 nM FB-MDC (Applied Biosystems). This fluorescent probe was prepared from a 10 μM stock in 0.08% (v/v) TFA/16% (v/v) acetonitrile, diluted into HBSS.
After two hours incubation in the dark at room temperature, the plates were analysed in an FMAT8100 reader (Applied Biosystems) to measure fluorescence that was associated with binding of FB-MDC to the cells. Compound activity was determined as an pIC50 [log(concentration of compound that results in 50% inhibition)], comparing fluorescence in control and background wells.

Structures are written as SMILES.

`COc1nc(SCC(N)c2ccccn2)cnc1NS(=O)(=O)c1cccc(Cl)c1Cl` (centres unmarked) [Example 26, N-[5-[[2-Amino-2-(2-pyridinyl)ethyl]thio]-3-methoxypyrazinyl]-2,3-dichlorobenzenesulfonamide] yielded a melting point of 172 to 174 °C. On the same count and under the same terms, next, `COC(=O)[C@@H](N)CSc1cnc(NS(=O)(=O)c2cccc(Cl)c2Cl)c(OC)n1` [Example 2, S-[5[[(2,3-Dichlorophenyl)sulfonyl]amino]-6-methoxypyrazinyl]-L-cysteine, methyl ester]: 170 to 174 °C; `CNC(=O)[C@@H](N)CSc1cnc(NS(=O)(=O)c2cccc(Cl)c2Cl)c(OC)n1` [Example 5, (2R)-2-Amino-3-[[5-[[(2,3-dichlorophenyl)sulfonyl]amino]-6-methoxypyrazinyl]thio]-N-methyl-propanamide]: 160 to 164 °C. Same read-out and setting: next, `COc1nc(SC[C@H](N)CO)c(Cl)nc1NS(=O)(=O)c1cccc(Cl)c1Cl` [Example 10, N-[5-[[(2R)-2-Amino-3-hydroxypropyl]thio]-6-chloro-3-methoxypyrazinyl]-2,3-dichlorobenzenesulfonamide]: 255 to 256 °C.

Compound `CNC(=O)[C@@H](N)CSc1nc(OC)c(NS(=O)(=O)c2cccc(Cl)c2Cl)nc1C` [Example 29, (2R)-2-Amino-3-[[5[[(2,3-dichlorophenyl)sulfonyl]amino]methoxy-3-methylpyrazinyl]thio]-N-methylpropanamide] came in with a melting point of 68 to 80 °C. On the same count and under the same terms, next, `COC(=O)[C@@H](N)CSc1nc(OC)c(NS(=O)(=O)c2cccc(Cl)c2Cl)nc1Cl` [Example 8, S-[3-Chloro-5-[[(2,3-dichlorophenyl)sulfonyl]amino]-6-methoxypyrazinyl]-L-cysteine, methyl ester]: 170 to 173 °C. For the compound `COc1nc(SCC(N)c2nccs2)cnc1NS(=O)(=O)c1cccc(Cl)c1Cl` (centres unmarked) [Example 30, N-[5-[[2-Amino-2-(2-thiazolyl)ethyl]thio]-3-methoxypyrazinyl]-2,3-dichlorobenzenesulfonamide], the melting point lay in the range of 168 to 169 °C. The same measure, in the same setting: next, `CNC(=O)[C@@H](N)CSc1nc(OC)c(NS(=O)(=O)c2cccc(Cl)c2Cl)nc1Cl` [Example 28, (2R)-2-Amino-3-[[3-chloro-5-[[(2,3-dichlorophenyl)sulfonyl]amino]-6-methoxypyrazinyl]thio]-N-methylpropanamide]: 150 to 155 °C; `COC(=O)[C@@H](N)CSc1nc(OC)c(NS(=O)(=O)c2cccc(Cl)c2Cl)nc1C`: 164 to 168 °C.

The compound `COc1nc(SCC(O)c2ccccn2)cnc1NS(=O)(=O)c1cccc(Cl)c1Cl` (centres unmarked) [Example 24, 2,3-Dichloro-N-[5-[[2-hydroxy-2-(2-pyridinyl)ethyl]thio]-3-methoxypyrazinyl]benzenesulfonamide] returned a melting point of 143 to 145 °C. `COc1nc(SC[C@H](N)C(N)=O)cnc1NS(=O)(=O)c1cccc(Cl)c1Cl` [Example 4, (2R)-2-Amino-3-[[5-[[(2,3-dichlorophenyl)sulfonyl]amino]-6-methoxypyrazinyl]thio]propanamide] gave a melting point of 148 to 152 °C. Moreover, the IC50 in series [1] was 631 nM. `COC(=O)[C@@H](O)CSc1cnc(NS(=O)(=O)c2cccc(Cl)c2Cl)c(OC)n1` [Example 25, 3-[[5[[(2,3-Dichlorophenyl)sulfonyl]amino]-6-methoxypyrazinyl]thio]-(2R)-2-hydroxypropanoic acid, methyl ester] had a melting point of 88 to 90 °C. Same read-out and setting: next, `COc1nc(SCC(O)c2ccccc2)cnc1NS(=O)(=O)c1cccc(Cl)c1Cl` (centres unmarked) [Example 20, 2,3-Dichloro-N-[5-[(2-hydroxy-2-phenylethyl)thio]-3-methoxypyrazinyl]benzenesulfonamide]: 141 to 143 °C; `COc1nc(SCC(N)c2cccnc2)cnc1NS(=O)(=O)c1cccc(Cl)c1Cl` (centres unmarked) [Example 22, N-[5-[[2-Amino-2-(3-pyridinyl)ethyl]thio]-3-methoxypyrazinyl]-2,3-dichloro benzenesulfonamide]: 175 to 178 °C; `COc1nc(SC[C@H](N)C(=O)O)c(Cl)nc1NS(=O)(=O)c1cccc(Cl)c1Cl` [Example 9, S-[3-Chloro-5[[(2,3-dichlorophenyl)sulfonyl]amino]-6-methoxypyrazinyl]-L-cysteine]: 170 to 173 °C. Still for that read-out and setting: to `COc1nc(SCC(N)c2nccn2C)cnc1NS(=O)(=O)c1cccc(Cl)c1Cl` (centres unmarked) [Example 27, N-[5-[[2-Amino-2-(1-methyl-1H-imidazol-2-yl)ethyl]thio]-3-methoxypyrazinyl]-2,3-dichlorobenzenesulfonamide] belongs 187 to 189 °C; to `COc1nc(SCC(O)CO)cnc1NS(=O)(=O)c1cccc(Cl)c1Cl` (centres unmarked) [Example 19, 2,3-Dichloro-N-[5-[(2,3-dihydroxypropyl)thio]-3-methoxypyrazinyl]benzenesulfonamide], 136 to 138 °C; to `COc1nc(SC[C@H](N)C(=O)O)cnc1NS(=O)(=O)c1cccc(Cl)c1Cl` [Example 3, S-[5-[[(2,3-Dichlorophenyl)sulfonyl]amino]-6-methoxypyrazinyl]-L-cysteine], 180 to 190 °C. Take `COc1nc(SCC(O)c2nccs2)cnc1NS(=O)(=O)c1cccc(Cl)c1Cl` (centres unmarked) [Example 15, 2,3-Dichloro-N-[5-[[2-hydroxy-2-(2-thiazolyl)ethyl]thio]-3-methoxypyrazinyl]-benzenesulfonamide]: in series [1], the IC50 was 398 nM. As to `COc1nc(SCC(O)c2cccnc2)cnc1NS(=O)(=O)c1cccc(Cl)c1Cl` (centres unmarked) [Example 21, 2,3-Dichloro-N-[5-[[2-hydroxy-2-(3-pyridinyl)ethyl]thio]-3-methoxypyrazinyl]benzenesulfonamide], the melting point is 188 to 190 °C. In turn, `COc1nc(SCC(O)c2ccncc2)cnc1NS(=O)(=O)c1cccc(Cl)c1Cl` (centres unmarked) [Example 23, 2,3-Dichloro-N-[5-[[2-hydroxy-2-(4-pyridinyl)ethyl]thio]-3-methoxypyrazinyl]benzenesulfonamide] showed a melting point of 176 to 177 °C.

Compound `COc1nc(SC[C@H](N)C(=O)N(C)C)cnc1NS(=O)(=O)c1cccc(Cl)c1Cl` [Example 6, (2R)-2-Amino-3-[[5-[[(2,3-dichlorophenyl)sulfonyl]amino]-6-methoxypyrazinyl]thio]-N,N-dimethylpropanamide] yielded a melting point of 187 to 190 °C.

As usually defined, the melting point is the temperature of the solid-liquid transition. The IC50 is the concentration that inhibits the measured activity by half.

Values taken from patent publication US20060122195A1, “Sulphonamide compounds that modulate chemokine receptor activity (ccr4)” (priority 2003, published 2006).
